US20250115597A1, “TYK2 INHIBITORS AND COMPOSITIONS AND METHODS THEREOF” (LYNK PHARMACEUTICALS CO. LTD., priority 2021, published 2025)
Where two headings read alike, the source gives them in different places.

What was measured:
[1] = Hepatocytes metabolic stability assay; format: in vitro ADME; conditions: cryopreserved hepatocytes, human hepatocytes, 1.0×10^6 cells/mL; for CLint scaled at 1 μM: read-out: Human hepatocyte Clint(liver); for half-life at 1 μM: read-out: Human hepatocyte stability T1/2
Method: Hepatocytes Metabolic Stability Assay
The vials of cryopreserved hepatocytes were removed from the liquid nitrogen container and immediately immersed in a 37° C. water bath for approximately 2 min. The melted ice pellets were transferred into tubes containing 50 mL of pre-warmed thawing medium and mixed well by gently inverting the tubes, and then centrifuged at 500 rpm for 3 minutes at room temperature. The supernatants were discarded, and cell pellets were re-suspended by adding appropriate volumes of pre-warmed incubation medium. The cells viability of each species was determined using Trypan Blue exclusion. Add 50 μL of pre-warmed 2× dosing solution to the wells designated for different time points. Then 50 μL of cells suspension (2×10^6 cells/mL) were added into appropriate wells at corresponding time points of T15, T30, T60, T120. Start timing and put the plate in an incubator at 37° C. For TO sample, add 300 μL of ACN containing internal standard to the wells, mix gently, then add 50 μL of pre-warmed hepatocytes solution (2×10^6 cells/mL). The concentration of test compound was 1 μM and 1.0×10^6 cells/mL in the final incubation. At each corresponding time point, test and control compounds reaction samples were stopped by adding 300 μL acetonitrile containing internal standard. All sample plates were thoroughly mixed and centrifuged at 5000×g for 15 minutes. The supernatants were diluted at ratio of 1:1 with ultra-pure water for test and positive controls. Then submitted for LC-MS/MS analysis.
The analyte/internal standard peak area ratios were converted to percentage remaining with the following equation: […]
The in vitro elimination constant, k of test compounds and control compounds were calculated from a log linear plot of % Remaining versus time, then the half-life (T1/2), the estimation of the in vitro hepatic intrinsic clearance (CLint) values were calculated from substrate disappearance rate in hepatocytes incubation: […]

[2] = Microsomal metabolic stability assay; format: in vitro ADME; conditions: pH 7.4, 0.5 mg/mL protein, 1 μM compound
How it was run: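 Parent loss was tracked by LC/MS/MS at 0, 5, 15, 30 and 45 min, with half-life derived from the ln(% remaining)–time slope. Incubation at 37 °C, pH 7.4 phosphate/EDTA buffer: 0.5 mg/mL microsomes, 1 μM compound, NADPH-regenerated (2 mM).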

[3] = target: T1, Ba/F3-FL-TYK2-P760L cells (Homo sapiens, UniProt P29597, P760L, cells depend on it); experiment: Anti-proliferative assay, Ba/F3-FL-TYK2-P760L cells (Cell-Titer Glo); format: cell-based; conditions: 72 h, read-out: BaF3-FL-T2P760L IC50
T1 construct: BaF3-FL-T2P760L (nM)
How it was run: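 Compound exposure ran 72 h at 37 °C in 5% CO2 across nine 3-fold concentrations from a 20 μM top dose, added 24 h after seeding 2000 cells/well.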

TYK2-JH2 domain = target: T2, TYK2-JH2 domain (Homo sapiens, UniProt P29597); experiment: Binding activity test for JH2 domain of TYK2 (Tb-antibody/tracer FRET); conditions: for JAK1/TYK2 selectivity: ratio JAK1-JH2 IC50 / TYK2-JH2 IC50
T2 construct: IC50 on JH2 domain activity (nM)
How it was run: (§1)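 FRET read-out after 60 min at 25° C plus overnight at 4° C; tracer displacement detected via Tb-labelled antibody on the JH2 domain. Dose-response used 11 points at 3-fold dilution.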

JAK1-JH2 domain = target: T3, JAK1-JH2 domain (Homo sapiens, UniProt P23458); experiment: Binding activity test for JH2 domain of JAK1 (Tb-antibody/tracer FRET)
T3 construct: IC50 on JH2 domain activity (nM)
How it was run: as §1

[4] = dog liver microsomes, read-out: Dog LM Clint
[5] = dog liver microsomes, read-out: Dog LM T½
[6] = human liver microsomes, read-out: Human LM Clint
[7] = human liver microsomes, read-out: Human LM T½
[8] = rat liver microsomes, read-out: Rat LM Clint
[9] = rat liver microsomes, read-out: Rat LM T½

T2 sequence (P29597 589-875 limits assumed): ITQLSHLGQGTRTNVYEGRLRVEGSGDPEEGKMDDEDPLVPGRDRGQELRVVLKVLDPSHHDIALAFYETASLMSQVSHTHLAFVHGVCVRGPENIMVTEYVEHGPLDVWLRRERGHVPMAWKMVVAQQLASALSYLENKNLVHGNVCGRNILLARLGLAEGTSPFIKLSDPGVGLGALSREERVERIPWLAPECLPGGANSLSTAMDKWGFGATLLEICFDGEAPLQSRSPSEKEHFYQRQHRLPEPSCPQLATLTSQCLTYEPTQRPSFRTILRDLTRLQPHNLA
T1 sequence (P29597 whole entry P760L): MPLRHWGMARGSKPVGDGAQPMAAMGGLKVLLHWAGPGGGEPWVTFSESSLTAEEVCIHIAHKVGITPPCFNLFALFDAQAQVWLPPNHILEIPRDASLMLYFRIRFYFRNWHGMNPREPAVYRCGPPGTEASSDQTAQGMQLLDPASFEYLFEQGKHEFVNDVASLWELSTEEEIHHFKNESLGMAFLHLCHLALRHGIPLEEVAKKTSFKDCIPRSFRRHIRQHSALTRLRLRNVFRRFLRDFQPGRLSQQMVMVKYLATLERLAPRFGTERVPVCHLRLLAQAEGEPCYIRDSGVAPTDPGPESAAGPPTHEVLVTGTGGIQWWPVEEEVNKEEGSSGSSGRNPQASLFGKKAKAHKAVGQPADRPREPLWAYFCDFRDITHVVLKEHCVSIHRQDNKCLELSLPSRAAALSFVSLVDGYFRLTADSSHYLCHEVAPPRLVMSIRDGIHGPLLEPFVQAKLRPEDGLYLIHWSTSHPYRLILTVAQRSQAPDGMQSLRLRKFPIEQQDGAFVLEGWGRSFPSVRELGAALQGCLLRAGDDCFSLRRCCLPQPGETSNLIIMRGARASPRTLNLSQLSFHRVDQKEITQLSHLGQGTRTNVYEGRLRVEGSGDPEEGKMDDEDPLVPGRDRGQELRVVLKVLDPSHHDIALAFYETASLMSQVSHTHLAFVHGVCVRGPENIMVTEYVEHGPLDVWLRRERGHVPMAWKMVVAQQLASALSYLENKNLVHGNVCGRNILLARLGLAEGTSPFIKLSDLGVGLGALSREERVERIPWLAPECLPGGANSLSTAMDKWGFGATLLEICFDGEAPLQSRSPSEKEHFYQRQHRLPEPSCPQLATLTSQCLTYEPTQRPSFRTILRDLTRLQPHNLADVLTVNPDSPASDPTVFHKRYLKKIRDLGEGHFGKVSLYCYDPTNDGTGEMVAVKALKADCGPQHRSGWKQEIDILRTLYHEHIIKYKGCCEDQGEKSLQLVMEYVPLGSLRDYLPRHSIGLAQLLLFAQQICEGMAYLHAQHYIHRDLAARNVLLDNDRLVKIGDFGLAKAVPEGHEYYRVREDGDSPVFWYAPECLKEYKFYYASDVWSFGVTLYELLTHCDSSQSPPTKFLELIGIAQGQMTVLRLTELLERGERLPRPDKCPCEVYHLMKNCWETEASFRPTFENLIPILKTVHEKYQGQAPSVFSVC
T3 sequence (P23458 583-855 limits assumed): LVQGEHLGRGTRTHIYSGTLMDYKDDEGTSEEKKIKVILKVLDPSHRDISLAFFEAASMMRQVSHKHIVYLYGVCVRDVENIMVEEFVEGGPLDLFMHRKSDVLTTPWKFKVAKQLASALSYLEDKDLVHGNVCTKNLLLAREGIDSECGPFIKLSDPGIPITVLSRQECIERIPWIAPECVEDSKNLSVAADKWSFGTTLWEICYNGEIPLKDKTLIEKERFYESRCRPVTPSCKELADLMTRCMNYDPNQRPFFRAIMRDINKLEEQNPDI

| Structure (SMILES) | CLint scaled at 1 μM [1] [mL/min/kg] | half-life at 1 μM [1] [h] | microsomal CLint at 1 μM [2, 4] [µL/min/mg] | half-life at 1 μM [2, 5] [h] | microsomal CLint at 1 μM [2, 6] [µL/min/mg] | half-life at 1 μM [2, 7] [h] | microsomal CLint at 1 μM [2, 8] [µL/min/mg] | half-life at 1 μM [2, 9] [h] | GI50 [3] [nM] | IC50 (TYK2-JH2 domain) [nM] | JAK1/TYK2 selectivity (TYK2-JH2 domain) | IC50 (JAK1-JH2 domain) [nM] |
| --- | --- | --- | --- | --- | --- | --- | --- | --- | --- | --- | --- | --- |
| [2H]C([2H])([2H])NC(=O)c1nnc(NC(=O)C2CC2)cc1Nc1cccc(-c2ncn(C)n2)c1OC [Example 41, 6-(Cyclopropanecarboxamido)-4-((2-methoxy-3-(1-methyl-1H-1,2,4-triazol-3-yl)phenyl)amino)-N-(methyl-d3)pyridazine-3-carboxamide] | < 17.8 | > 3.61 |  |  |  |  |  |  |  |  |  |  |
| [2H]C([2H])([2H])NC(=O)c1cnc(Nc2cnn(C3CC3)c2)nc1Nc1ccc2cnn(CC)c2c1OC([2H])([2H])[2H] [Example 137, 2-((1-Cyclopropyl-1H-pyrazol-4-yl)amino)-4-((1-ethyl-7-(methoxy-d3)-1H-indazol-6-yl)amino)-N-(methyl-d3)pyrimidine-5-carboxamide] | 14.4 | 2.04 |  |  |  |  |  |  | 335 |  |  |  |
| [2H]C([2H])([2H])NC(=O)c1cnc(NC(=O)C2CC2)cc1Nc1ccc2cnn(CC(N)=O)c2c1OC [Example 259, 4-((1-(2-Amino-2-oxoethyl)-7-methoxy-1H-indazol-6-yl)amino)-6-(cyclopropanecarboxamido)-N-(methyl-d3)nicotinamide] |  |  | 9.24 | 2.5 | 4.39 | 5.26 | 4.7 | 4.92 | > 5000 | 6.29 | 12.7 | 79.9 |
| [2H]C([2H])([2H])NC(=O)c1cnc(NC(=O)C2CC2)cc1Nc1ncc2ncn(CC)c2c1OC [Example 260, 6-(Cyclopropanecarboxamido)-4-((1-ethyl-7-methoxy-1H-imidazo[4,5-c]pyridin-6-yl)amino)-N-(methyl-d3)nicotinamide] |  |  |  |  |  |  |  |  | 143 | 0.124 | 78.9 | 9.78 |
| [2H]C([2H])([2H])NC(=O)c1cnc(Nc2ccn(C)n2)cc1Nc1ncc2cnn(CC)c2c1OC [Example 264, 4-((1-Ethyl-7-methoxy-1H-pyrazolo[4,3-c]pyridin-6-yl)amino)-N-(methyl-d3)-6-((1-methyl-1H-pyrazol-3-yl)amino)nicotinamide] |  |  | 16.9 | 1.37 | 12.1 | 1.91 | 15.4 | 1.5 | 278 | 1.77 | 41.4 | 73.7 |
| [2H]C([2H])([2H])NC(=O)c1cnc(NC(=O)C2CC2)cc1Nc1ncc2cnn(C3CC3)c2c1OC [Example 267, 6-(Cyclopropanecarboxamido)-4-((1-cyclopropyl-7-methoxy-1H-pyrazolo[4,3-c]pyridin-6-yl)amino)-N-(methyl-d3)nicotinamide] |  |  |  |  |  |  |  |  | 227 | 0.181 | 51.1 | 9.25 |
| [2H]C([2H])([2H])NC(=O)c1cnc(NC(=O)C2CC2)cc1Nc1ncc2cnn(CCC(F)(F)F)c2c1OC [Example 275, 6-(Cyclopropanecarboxamido)-4-((7-methoxy-1-(3,3,3-trifluoropropyl)-1H-pyrazolo[4,3-c]pyridin-6-yl)amino)-N-(methyl-d3)nicotinamide] |  |  |  |  |  |  |  |  | 118 | 0.449 | 60.2 | 27 |
| [2H]C([2H])([2H])NC(=O)c1cnc(NC(=O)C2CC2)cc1Nc1ncc2cnn(CC(C)(F)F)c2c1OC [Example 276, 6-(Cyclopropanecarboxamido)-4-((1-(2,2-difluoropropyl)-7-methoxy-1H-pyrazolo[4,3-c]pyridin-6-yl)amino)-N-(methyl-d3)nicotinamide] |  |  |  |  |  |  |  |  | 88.2 | 0.253 | 436.1 | 110 |
| [2H]C([2H])([2H])NC(=O)c1cnc(NC(=O)C2CC2)cc1Nc1ccn2ncc(OC)c2c1OC [Example 278, 6-(Cyclopropanecarboxamido)-4-((3,4-dimethoxypyrazolo[1,5-a]pyridin-5-yl)amino)-N-(methyl-d3)nicotinamide] |  |  |  |  |  |  |  |  | 130 | 0.385 | 25.0 | 9.63 |

Second part, the molecule after the results:

| CLint scaled at 1 μM [1] [mL/min/kg] | half-life at 1 μM [1] [h] | microsomal CLint at 1 μM [2, 4] [µL/min/mg] | half-life at 1 μM [2, 5] [h] | microsomal CLint at 1 μM [2, 6] [µL/min/mg] | half-life at 1 μM [2, 7] [h] | microsomal CLint at 1 μM [2, 8] [µL/min/mg] | half-life at 1 μM [2, 9] [h] | GI50 [3] [nM] | IC50 (TYK2-JH2 domain) [nM] | JAK1/TYK2 selectivity (TYK2-JH2 domain) | IC50 (JAK1-JH2 domain) [nM] | Structure (SMILES) |
| --- | --- | --- | --- | --- | --- | --- | --- | --- | --- | --- | --- | --- |
| < 7.35 | > 4 | 31.9 | 0.725 | 7.54 | 3.06 | 47.4 | 0.488 | 44.4 |  |  |  | [2H]C([2H])([2H])NC(=O)c1nnc2cc1Nc1cc(cc(-c3ncn(C)n3)c1OC)COCc1nc(ccc1F)N2 [Example 67, 18-Fluoro-10-methoxy-N-(methyl-d3)-11-(1-methyl-1H-1,2,4-triazol-3-yl)-15-oxa-2,4,5,8,21-pentaazatetracyclo[15.3.1.1^{3,7}.1^{9,13}]tricosa-1(20),3,5,7(23),9(22),10,12,17(21),18-nonaene-6-carboxamide] |
|  |  | 51.9 | 0.445 | 50.4 | 0.458 | 90.5 | 0.255 | 71.3 | 0.455 | 33.2 | 15.1 | [2H]C([2H])([2H])NC(=O)c1cnc(Nc2ccncn2)cc1Nc1ccc2cnn(C([2H])([2H])[2H])c2c1OC [Example 153, 4-((7-Methoxy-1-(methyl-d3)-1H-indazol-6-yl)amino)-N-(methyl-d3)-6-(pyrimidin-4-ylamino)nicotinamide] |
|  |  | 9.01 | 2.56 | 9.51 | 2.43 | 20.2 | 1.14 | 39.7 | 0.135 | 23.5 | 3.18 | [2H]C([2H])([2H])NC(=O)c1cnc(Nc2ccc(F)cn2)cc1Nc1ccn2ncc(C#N)c2c1OC [Example 257, 4-((3-Cyano-4-methoxypyrazolo[1,5-a]pyridin-5-yl)amino)-6-((5-fluoropyridin-2-yl)amino)-N-(methyl-d3)nicotinamide] |
|  |  | 97.2 | 0.238 | 29.2 | 0.791 | 40.9 | 0.566 | 41.7 | 0.29 | 87.4 | 25.4 | [2H]C([2H])([2H])NC(=O)c1cnc(Nc2ccc(F)cn2)cc1Nc1ncc2cnn(CC)c2c1OC [Example 263, 4-((1-Ethyl-7-methoxy-1H-pyrazolo[4,3-c]pyridin-6-yl)amino)-6-((5-fluoropyridin-2-yl)amino)-N-(methyl-d3)nicotinamide] |
|  |  |  |  |  |  |  |  | 28.4 | 0.166 | 16.1 | 2.68 | [2H]C([2H])([2H])NC(=O)c1cnc(Nc2ccc(N3CCOCC3)cn2)cc1Nc1ccc2cnn(CC)c2c1OC [Example 273, 4-((1-Ethyl-7-methoxy-1H-indazol-6-yl)amino)-N-(methyl-d3)-6-((5-morpholinopyridin-2-yl)amino)nicotinamide] |
|  |  |  |  |  |  |  |  | 60.2 | 1.11 | 55.5 | 61.4 | [2H]C([2H])([2H])NC(=O)c1cnc(Nc2ccc(F)cn2)cc1Nc1ncc2cnn(C([2H])([2H])[2H])c2c1OC [Example 277, 6-((5-Fluoropyridin-2-yl)amino)-4-((7-methoxy-1-(methyl-d3)-1H-pyrazolo[4,3-c]pyridin-6-yl)amino)-N-(methyl-d3)nicotinamide] |
